Test results: ChEMBL document CHEMBL1155237, “Selective inhibitors of the mutant B-Raf pathway: discovery of a potent and orally bioavailable aminoisoquinoline” (J Med Chem, 2009)

What was measured:
[1] = AUC (0 to 24 hrs) in human A375 SQ2 cells xenografted po dosed CD1 mouse administered once daily for 14 days; type: ADME, organism-based, A-375; design: time < 24 hr, route oral; details: in vivo
[2] = target: Serine/threonine-protein kinase MRCK gamma (Homo sapiens) (UniProt Q6DT37); test: Inhibition of DMPK2 assessed as enzyme activity at 1 uM relative to untreated control; design: scale not given: the % may be the effect or the level left
[3] = target: Serine/threonine-protein kinase 4 (Homo sapiens) (UniProt Q13043); test: Inhibition of MST1 assessed as enzyme activity at 1 uM relative to untreated control; design: scale not given: the % may be the effect or the level left
Chain of Serine/threonine-protein kinase 4 (Homo sapiens) (Q13043 whole entry): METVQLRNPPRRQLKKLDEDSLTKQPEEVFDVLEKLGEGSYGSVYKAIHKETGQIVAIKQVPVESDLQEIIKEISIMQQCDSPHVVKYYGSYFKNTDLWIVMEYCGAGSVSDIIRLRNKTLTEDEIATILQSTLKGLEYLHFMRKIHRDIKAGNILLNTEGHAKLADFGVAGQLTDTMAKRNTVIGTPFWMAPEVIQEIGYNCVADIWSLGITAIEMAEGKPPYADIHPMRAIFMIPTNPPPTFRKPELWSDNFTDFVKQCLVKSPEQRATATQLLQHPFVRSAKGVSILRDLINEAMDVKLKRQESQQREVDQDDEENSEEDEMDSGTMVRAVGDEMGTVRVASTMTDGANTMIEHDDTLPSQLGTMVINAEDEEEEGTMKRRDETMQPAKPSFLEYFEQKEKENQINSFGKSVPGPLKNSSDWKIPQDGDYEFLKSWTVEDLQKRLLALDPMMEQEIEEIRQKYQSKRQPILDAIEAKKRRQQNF

[4] = target: Receptor-interacting serine/threonine-protein kinase 4 (Homo sapiens) (UniProt P57078); test: Inhibition of RIPK4 assessed as enzyme activity at 1 uM relative to untreated control; design: scale not given: the % may be the effect or the level left
Chain of Receptor-interacting serine/threonine-protein kinase 4 (Homo sapiens) (P57078 whole entry): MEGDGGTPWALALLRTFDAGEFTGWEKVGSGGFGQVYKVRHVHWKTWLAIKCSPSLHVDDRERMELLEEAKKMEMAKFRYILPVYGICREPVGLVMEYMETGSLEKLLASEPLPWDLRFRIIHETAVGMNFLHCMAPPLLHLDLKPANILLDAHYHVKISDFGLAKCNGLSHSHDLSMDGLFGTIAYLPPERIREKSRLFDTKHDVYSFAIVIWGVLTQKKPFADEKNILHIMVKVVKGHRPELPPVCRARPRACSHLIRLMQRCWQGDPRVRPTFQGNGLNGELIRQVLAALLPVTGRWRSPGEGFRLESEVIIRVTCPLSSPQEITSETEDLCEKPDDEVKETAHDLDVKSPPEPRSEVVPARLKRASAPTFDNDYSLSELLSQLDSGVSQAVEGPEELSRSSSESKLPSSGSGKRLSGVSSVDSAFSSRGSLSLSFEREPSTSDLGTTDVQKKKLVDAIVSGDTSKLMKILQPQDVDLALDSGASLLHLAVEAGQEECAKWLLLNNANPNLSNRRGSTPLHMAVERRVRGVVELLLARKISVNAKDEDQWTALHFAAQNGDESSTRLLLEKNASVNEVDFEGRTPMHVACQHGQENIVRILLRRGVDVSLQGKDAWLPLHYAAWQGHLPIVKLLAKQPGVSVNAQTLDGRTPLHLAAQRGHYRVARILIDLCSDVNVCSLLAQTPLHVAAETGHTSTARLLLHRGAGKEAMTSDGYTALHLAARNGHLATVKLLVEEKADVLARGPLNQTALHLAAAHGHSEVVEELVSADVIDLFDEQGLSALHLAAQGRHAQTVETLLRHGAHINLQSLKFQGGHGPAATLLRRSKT

[5] = system: Mast/stem cell growth factor receptor Kit (Homo sapiens), P10721 [V559D]; test: Inhibition of KIT V559D mutant assessed as enzyme activity at 1 uM relative to untreated control; design: scale not given: the % may be the effect or the level left
[6] = Clearance in Sprague-Dawley rat at 2 mg/kg, iv and 5 mg/kg, po; type: ADME, organism-based; details: in vivo
[7] = target: cGMP-dependent protein kinase 1 (Homo sapiens) (UniProt Q13976); test: Inhibition of PRKG1 assessed as enzyme activity at 1 uM relative to untreated control; design: scale not given: the % may be the effect or the level left
[8] = target: Muscle, skeletal receptor tyrosine-protein kinase (Homo sapiens) (UniProt O15146); test: Inhibition of MUSK assessed as enzyme activity at 1 uM relative to untreated control; design: scale not given: the % may be the effect or the level left
[9] = target: Fibroblast growth factor receptor 1 (Homo sapiens) (UniProt P11362); test: Inhibition of FGFR1 assessed as enzyme activity at 1 uM relative to untreated control; design: scale not given: the % may be the effect or the level left
[10] = system: Mast/stem cell growth factor receptor Kit (Homo sapiens), P10721 [V559D,V654A]; test: Inhibition of KIT V559D,V654A mutant assessed as enzyme activity at 1 uM relative to untreated control; design: scale not given: the % may be the effect or the level left
[11] = target: Mitogen-activated protein kinase 10 (Homo sapiens) (UniProt P53779); test: Inhibition of JNK3 assessed as enzyme activity at 1 uM relative to untreated control; design: scale not given: the % may be the effect or the level left
[12] = target: Calcium/calmodulin-dependent protein kinase type II subunit gamma (Homo sapiens) (UniProt Q13555); test: Inhibition of CAMK2G assessed as enzyme activity at 1 uM relative to untreated control; design: scale not given: the % may be the effect or the level left
[13] = target: ALK tyrosine kinase receptor (Homo sapiens) (UniProt Q9UM73); test: Inhibition of ALK assessed as enzyme activity at 1 uM relative to untreated control; design: scale not given: the % may be the effect or the level left
Chain of ALK tyrosine kinase receptor (Homo sapiens) (Q9UM73 19-1620 limits assumed): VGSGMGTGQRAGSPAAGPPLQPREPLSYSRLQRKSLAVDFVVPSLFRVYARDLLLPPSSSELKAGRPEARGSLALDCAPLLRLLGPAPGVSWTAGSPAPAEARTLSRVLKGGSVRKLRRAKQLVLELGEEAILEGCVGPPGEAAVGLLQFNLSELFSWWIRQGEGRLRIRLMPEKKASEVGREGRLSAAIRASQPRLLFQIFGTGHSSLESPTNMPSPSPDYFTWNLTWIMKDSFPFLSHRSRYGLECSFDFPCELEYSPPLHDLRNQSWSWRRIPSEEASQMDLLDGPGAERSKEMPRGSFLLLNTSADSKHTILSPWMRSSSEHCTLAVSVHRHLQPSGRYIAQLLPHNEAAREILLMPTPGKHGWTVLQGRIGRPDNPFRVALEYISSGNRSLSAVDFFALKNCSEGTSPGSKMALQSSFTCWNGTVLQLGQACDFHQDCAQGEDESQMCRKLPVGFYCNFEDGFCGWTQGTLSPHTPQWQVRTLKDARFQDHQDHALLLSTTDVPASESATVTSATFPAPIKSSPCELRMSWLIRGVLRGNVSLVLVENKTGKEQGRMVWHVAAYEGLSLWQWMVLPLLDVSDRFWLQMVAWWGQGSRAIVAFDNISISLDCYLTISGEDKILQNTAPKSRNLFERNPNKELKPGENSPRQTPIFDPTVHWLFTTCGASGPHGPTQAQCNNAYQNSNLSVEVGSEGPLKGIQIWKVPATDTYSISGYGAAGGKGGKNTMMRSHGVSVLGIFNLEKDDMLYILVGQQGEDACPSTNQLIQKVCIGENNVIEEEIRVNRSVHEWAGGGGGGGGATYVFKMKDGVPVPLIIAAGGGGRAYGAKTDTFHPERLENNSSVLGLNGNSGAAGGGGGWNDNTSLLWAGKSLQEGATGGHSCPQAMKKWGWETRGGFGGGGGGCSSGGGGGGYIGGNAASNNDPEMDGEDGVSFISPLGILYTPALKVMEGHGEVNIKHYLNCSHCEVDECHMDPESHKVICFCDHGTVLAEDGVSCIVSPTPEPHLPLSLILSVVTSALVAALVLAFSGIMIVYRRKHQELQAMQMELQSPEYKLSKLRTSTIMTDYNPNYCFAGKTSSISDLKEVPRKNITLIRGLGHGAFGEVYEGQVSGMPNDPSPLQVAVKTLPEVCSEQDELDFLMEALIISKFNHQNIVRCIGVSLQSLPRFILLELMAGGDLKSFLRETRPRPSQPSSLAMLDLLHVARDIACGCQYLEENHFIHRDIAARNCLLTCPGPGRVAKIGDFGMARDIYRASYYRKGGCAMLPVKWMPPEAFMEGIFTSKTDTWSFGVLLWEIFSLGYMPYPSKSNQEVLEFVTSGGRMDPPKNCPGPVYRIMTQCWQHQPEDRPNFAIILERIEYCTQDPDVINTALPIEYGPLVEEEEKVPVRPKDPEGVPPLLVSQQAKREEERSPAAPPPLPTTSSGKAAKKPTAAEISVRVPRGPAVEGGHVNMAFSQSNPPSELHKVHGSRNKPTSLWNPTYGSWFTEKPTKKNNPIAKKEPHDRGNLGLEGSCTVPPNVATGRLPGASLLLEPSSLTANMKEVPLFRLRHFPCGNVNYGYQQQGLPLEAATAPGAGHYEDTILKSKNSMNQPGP

[14] = target: Cyclin-dependent kinase 16 (Homo sapiens) (UniProt Q00536); test: Inhibition of PCTK1 assessed as enzyme activity at 1 uM relative to untreated control; design: scale not given: the % may be the effect or the level left
[15] = target: Mitogen-activated protein kinase 14 (Homo sapiens, UniProt Q16539); test: Inhibition of p38alpha
[16] = target: Mitogen-activated protein kinase kinase kinase kinase 1 (Homo sapiens) (UniProt Q92918); test: Inhibition of MAP4K1 assessed as enzyme activity at 1 uM relative to untreated control; design: scale not given: the % may be the effect or the level left
Chain of Mitogen-activated protein kinase kinase kinase kinase 1 (Homo sapiens) (Q92918 whole entry, looked up): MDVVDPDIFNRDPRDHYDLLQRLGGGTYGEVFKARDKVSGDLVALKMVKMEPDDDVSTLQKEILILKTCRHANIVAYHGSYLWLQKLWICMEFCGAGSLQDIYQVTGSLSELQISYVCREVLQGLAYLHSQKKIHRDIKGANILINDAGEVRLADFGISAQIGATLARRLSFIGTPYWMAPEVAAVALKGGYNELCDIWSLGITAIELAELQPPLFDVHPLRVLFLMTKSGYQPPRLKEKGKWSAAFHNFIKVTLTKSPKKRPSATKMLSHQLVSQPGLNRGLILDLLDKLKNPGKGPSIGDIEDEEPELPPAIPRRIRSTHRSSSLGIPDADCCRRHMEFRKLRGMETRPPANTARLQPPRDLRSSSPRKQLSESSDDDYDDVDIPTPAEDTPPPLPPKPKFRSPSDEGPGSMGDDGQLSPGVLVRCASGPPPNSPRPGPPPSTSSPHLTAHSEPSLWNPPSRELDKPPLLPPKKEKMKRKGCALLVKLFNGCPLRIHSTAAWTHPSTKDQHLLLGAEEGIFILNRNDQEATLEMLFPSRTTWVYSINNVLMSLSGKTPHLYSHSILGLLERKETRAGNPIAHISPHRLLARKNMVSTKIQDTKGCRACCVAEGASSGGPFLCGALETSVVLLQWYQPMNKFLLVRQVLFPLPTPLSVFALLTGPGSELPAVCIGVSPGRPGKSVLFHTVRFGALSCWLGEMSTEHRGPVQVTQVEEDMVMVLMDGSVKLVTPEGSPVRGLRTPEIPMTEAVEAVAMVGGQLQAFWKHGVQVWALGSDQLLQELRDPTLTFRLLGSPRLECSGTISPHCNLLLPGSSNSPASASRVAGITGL

[17] = system: Mast/stem cell growth factor receptor Kit (Homo sapiens), P10721 [D816V]; test: Inhibition of KIT D816V mutant assessed as enzyme activity at 1 uM relative to untreated control; design: scale not given: the % may be the effect or the level left
[18] = target: Serine/threonine-protein kinase TAO1 (Homo sapiens) (UniProt Q7L7X3); test: Inhibition of TAOK1 assessed as enzyme activity at 1 uM relative to untreated control; design: scale not given: the % may be the effect or the level left
Chain of Serine/threonine-protein kinase TAO1 (Homo sapiens) (Q7L7X3 whole entry): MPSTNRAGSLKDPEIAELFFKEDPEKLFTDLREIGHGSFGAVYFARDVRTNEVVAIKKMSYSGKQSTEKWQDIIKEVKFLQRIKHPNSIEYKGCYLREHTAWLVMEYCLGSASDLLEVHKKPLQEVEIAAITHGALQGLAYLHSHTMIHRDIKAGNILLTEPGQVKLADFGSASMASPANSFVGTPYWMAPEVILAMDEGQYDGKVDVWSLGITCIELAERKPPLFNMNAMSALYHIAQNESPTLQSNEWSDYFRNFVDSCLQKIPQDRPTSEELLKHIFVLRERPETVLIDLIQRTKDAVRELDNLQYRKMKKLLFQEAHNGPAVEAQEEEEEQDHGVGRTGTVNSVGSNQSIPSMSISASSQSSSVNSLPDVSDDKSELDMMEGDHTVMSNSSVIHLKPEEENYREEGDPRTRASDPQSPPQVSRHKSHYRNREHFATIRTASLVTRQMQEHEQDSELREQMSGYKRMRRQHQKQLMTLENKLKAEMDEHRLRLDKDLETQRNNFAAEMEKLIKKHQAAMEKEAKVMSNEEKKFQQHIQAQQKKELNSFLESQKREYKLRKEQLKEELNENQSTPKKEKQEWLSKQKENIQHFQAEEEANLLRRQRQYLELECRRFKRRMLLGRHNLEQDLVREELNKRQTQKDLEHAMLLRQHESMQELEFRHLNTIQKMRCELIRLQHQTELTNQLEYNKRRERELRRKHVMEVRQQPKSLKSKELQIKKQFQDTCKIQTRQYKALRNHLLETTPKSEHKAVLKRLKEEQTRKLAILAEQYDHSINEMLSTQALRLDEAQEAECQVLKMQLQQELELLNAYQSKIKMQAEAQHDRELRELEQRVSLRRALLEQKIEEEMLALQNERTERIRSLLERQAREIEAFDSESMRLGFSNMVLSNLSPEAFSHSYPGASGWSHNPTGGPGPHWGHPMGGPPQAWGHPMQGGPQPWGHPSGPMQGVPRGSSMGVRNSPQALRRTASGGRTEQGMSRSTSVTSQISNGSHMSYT

[19] = target: Activin receptor type-2A (Homo sapiens) (UniProt P27037); test: Inhibition of ACVR2A assessed as enzyme activity at 1 uM relative to untreated control; design: scale not given: the % may be the effect or the level left
[20] = target: Tyrosine-protein kinase JAK3 (Homo sapiens) (UniProt P52333); test: Inhibition of JAK3 kinase domain 2 assessed as enzyme activity at 1 uM relative to untreated control; design: scale not given: the % may be the effect or the level left
[21] = target: NUAK family SNF1-like kinase 1 (Homo sapiens) (UniProt O60285); test: Inhibition of ARK5 assessed as enzyme activity at 1 uM relative to untreated control; design: scale not given: the % may be the effect or the level left
[22] = target: Tyrosine-protein kinase Fes/Fps (Homo sapiens) (UniProt P07332); test: Inhibition of FES assessed as enzyme activity at 1 uM relative to untreated control; design: scale not given: the % may be the effect or the level left
[23] = target: Ribosomal protein S6 kinase alpha-5 (Homo sapiens) (UniProt O75582); test: Inhibition of RPS6KA5 kinase domain 2 assessed as enzyme activity at 1 uM relative to untreated control; design: scale not given: the % may be the effect or the level left
[24] = target: Ephrin type-A receptor 7 (Homo sapiens) (UniProt Q15375); test: Inhibition of EPHA7 assessed as enzyme activity at 1 uM relative to untreated control; design: scale not given: the % may be the effect or the level left
[25] = target: Mitogen-activated protein kinase 3 (Homo sapiens) (UniProt P27361); test: Inhibition of ERK1 assessed as enzyme activity at 1 uM relative to untreated control; design: scale not given: the % may be the effect or the level left
[26] = target: Tyrosine-protein kinase Yes (Homo sapiens) (UniProt P07947); test: Inhibition of YES assessed as enzyme activity at 1 uM relative to untreated control; design: scale not given: the % may be the effect or the level left
[27] = target: Serine/threonine-protein kinase 17A (Homo sapiens) (UniProt Q9UEE5); test: Inhibition of DRAK1 assessed as enzyme activity at 1 uM relative to untreated control; design: scale not given: the % may be the effect or the level left
[28] = target: Mast/stem cell growth factor receptor Kit (Homo sapiens) (UniProt P10721); test: Inhibition of KIT assessed as enzyme activity at 1 uM relative to untreated control; design: scale not given: the % may be the effect or the level left
[29] = target: Activin receptor type-1-like (Homo sapiens) (UniProt P37023); test: Inhibition of ACVRL1 assessed as enzyme activity at 1 uM relative to untreated control; design: scale not given: the % may be the effect or the level left
[30] = target: Serine/threonine-protein kinase RIO3 (Homo sapiens) (UniProt O14730); test: Inhibition of RIOK3 assessed as enzyme activity at 1 uM relative to untreated control; design: scale not given: the % may be the effect or the level left
[31] = target: Phosphatidylinositol 4,5-bisphosphate 3-kinase catalytic subunit beta isoform (Homo sapiens) (UniProt P42338); test: Inhibition of PIK3CB assessed as enzyme activity at 1 uM relative to untreated control; design: scale not given: the % may be the effect or the level left
[32] = target: Mitogen-activated protein kinase kinase kinase 10 (Homo sapiens) (UniProt Q02779); test: Inhibition of MLK2 assessed as enzyme activity at 1 uM relative to untreated control; design: scale not given: the % may be the effect or the level left
[33] = target: Ephrin type-A receptor 3 (Homo sapiens) (UniProt P29320); test: Inhibition of EPHA3 assessed as enzyme activity at 1 uM relative to untreated control; design: scale not given: the % may be the effect or the level left
[34] = target: Serine/threonine-protein kinase SIK2 (Homo sapiens) (UniProt Q9H0K1); test: Inhibition of SNF1LK2 assessed as enzyme activity at 1 uM relative to untreated control; design: scale not given: the % may be the effect or the level left
[35] = target: Tyrosine-protein kinase Fer (Homo sapiens) (UniProt P16591); test: Inhibition of FER assessed as enzyme activity at 1 uM relative to untreated control; design: scale not given: the % may be the effect or the level left
[36] = target: Serine/threonine-protein kinase pim-3 (Homo sapiens) (UniProt Q86V86); test: Inhibition of PIM3 assessed as enzyme activity at 1 uM relative to untreated control; design: scale not given: the % may be the effect or the level left
[37] = target: Tyrosine-protein kinase receptor Tie-1 (Homo sapiens) (UniProt P35590); test: Inhibition of TIE1 assessed as enzyme activity at 1 uM relative to untreated control; design: scale not given: the % may be the effect or the level left
[38] = Inhibition of FGFR3 G697C mutant assessed as enzyme activity at 1 uM relative to untreated control; design: scale not given: the % may be the effect or the level left

With `Cc1ccc2c(Nc3ccc(Cl)cc3)nccc2c1Nc1ncccc1-c1ncnc2[nH]cnc12.Cl.Cl.Cl` as the molecule, how does the AUC at 24 h [1] read?
Its AUC at 24 h is 2730 ng·h/mL.

And the Activity [2]?
The Activity was 99%.

What about the Activity [3] of the same molecule?
The Activity was 88%.

What about the Activity [4] of the same molecule?
Its Activity is 64%.

What about the Activity [5] of the same molecule?
Its Activity is 36%.

What about the clearance [6] of the same molecule?
The clearance was 6.67 mL/min/kg.

What about the Activity [7] of the same molecule?
The Activity was 93%.

And the Activity [8]?
The Activity was 66%.

What about the Activity [9] of the same molecule?
Its Activity is 80%.

And the Activity [10]?
The Activity was 100%.

And the Activity [11]?
The Activity was 86%.

And the Activity [12]?
Its Activity is 98%.

And the Activity [13]?
Its Activity is 96%.

And the Activity [14]?
The Activity was 98%.

What about the IC50 [15] of the same molecule?
The IC50 was greater than 1.6 µM.

What about the Activity [16] of the same molecule?
Its Activity is 100%.

What about the Activity [17] of the same molecule?
Its Activity is 100%.

What about the Activity [18] of the same molecule?
Its Activity is 88%.

What about the Activity [19] of the same molecule?
The Activity was 100%.

And the Activity [20]?
The Activity was 100%.

What about the Activity [21] of the same molecule?
Its Activity is 100%.

What about the Activity [22] of the same molecule?
Its Activity is 100%.

What about the Activity [23] of the same molecule?
Its Activity is 100%.

And the Activity [24]?
The Activity was 4.7%.

What about the Activity [25] of the same molecule?
The Activity was 100%.

And the Activity [26]?
The Activity was 52%.

And the Activity [27]?
Its Activity is 100%.

What about the Activity [28] of the same molecule?
The Activity was 28%.

And the Activity [29]?
The Activity was 92%.

And the Activity [30]?
Its Activity is 77%.

And the Activity [31]?
Its Activity is 100%.

What about the Activity [32] of the same molecule?
Its Activity is 99%.

And the Activity [33]?
Its Activity is 74%.

What about the Activity [34] of the same molecule?
Its Activity is 100%.

And the Activity [35]?
The Activity was 78%.

What about the Activity [36] of the same molecule?
Its Activity is 100%.

What about the Activity [37] of the same molecule?
Its Activity is 4.9%.

What about the Activity [38] of the same molecule?
Its Activity is 100%.
